Laboratory results published in patent publication US5610282A (The United States of America as represented by the …, priority 1995, dated 1997).

Target: T1, D1 dopamine receptor (Rattus norvegicus, UniProt P18901)
T1 construct: The longest open reading frame in this cDNA codes for a 487 residue protein; expressed in transfected cells; host or cells: COS-7 cells (transient, plasmid pSRalpha-D1)
Assay type: cell-based
Conditions: agonist 1 uM, with 0.5 uM propranolol

T1 sequence (P18901 whole entry): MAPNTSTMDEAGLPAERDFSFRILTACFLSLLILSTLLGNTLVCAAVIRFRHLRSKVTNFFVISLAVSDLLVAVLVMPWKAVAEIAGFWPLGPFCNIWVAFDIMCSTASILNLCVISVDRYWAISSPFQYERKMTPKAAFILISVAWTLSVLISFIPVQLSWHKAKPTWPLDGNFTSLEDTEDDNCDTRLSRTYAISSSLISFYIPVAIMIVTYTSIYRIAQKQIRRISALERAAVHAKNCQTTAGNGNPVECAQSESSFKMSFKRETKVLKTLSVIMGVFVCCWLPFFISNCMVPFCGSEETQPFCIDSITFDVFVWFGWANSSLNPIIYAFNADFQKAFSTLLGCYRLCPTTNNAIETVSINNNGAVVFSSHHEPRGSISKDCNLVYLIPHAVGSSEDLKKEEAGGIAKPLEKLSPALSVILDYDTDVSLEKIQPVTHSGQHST

Oc1cc2c(cc1O)C(c1ccccc1)CNCC2 (stereo not drawn) [SKF-38393 (-)isomer, SKF-38393]
stimulation of cAMP accumulation (in words): lower potency

CNC[C@H](O)c1ccc(O)c(O)c1 [epinephrine]
stimulation of cAMP accumulation (in words): low potency relative to dopamine
